Columns and labels:
Format in all cases: in vivo
[1] = system: leukemia cells (1629B cells) in bone marrow; assay: Proliferation of leukemia cells in bone marrow in mouse leukemia model (PCR of neomycin resistance gene)
Description: Neomycin resistance gene, a marker gene for 1629B cells, was used as an index of leukemia cells (1629B cells) in bone marrow and the gene level was determined, thereby detecting the number of leukemia cells in bone marrow.
For the amplification of neomycin resistance gene, primers were prepared and PCR (reaction condition: 32 cycles of 95° C. for 30 sec, 60° C. for 30 sec, and 72° C. for 1 min) was performed using DNA extracted from bone marrow cells as a template. After the reaction, the image of PCR bands was analyzed using Gel-Pro Analyzer (MediaCybernetics).

[2] = system: mouse leukemia cell line 1629B; assay: Mouse leukemia model, survival time and leukocytes in peripheral blood, dosing from Day 21 after transfer of 1629B cells; conditions: SCID mice, 100 mg/kg orally every day from Day 21 after transfer; for reduction ratio of increase in the number of leukocytes in peripheral blood: Day 35 after the transfer; for survival time prolonged to (Day after the transfer of leukemia cells): untreated mice died on Day 36
Description: This method was carried out in accordance with the literature “Cancer Cell., 4, 55-65 (2003)”.
Cells of mouse leukemia cell line 1629B were transferred into 8-week-old female SCID mice (CLEA Japan, Inc.) to develop leukemia. The compounds described in Examples 77, 78 and 84 were orally administered, respectively, at a dose of 100 mg/kg every day from Day 21 after the transfer of 1629B cells.

[3] = system: mouse leukemia cell line 1629B; assay: Mouse leukemia model, survival rate and leukocytes in peripheral blood, dosing from the time of 1629B cell transfer; conditions: SCID mice, 100 mg/kg orally every day from 1629B transfer
Description: This method was carried out in accordance with the literature “Cancer Cell., 4, 55-65 (2003)”. Cells of mouse leukemia cell line 1629B were transferred into 8- or 9-week-old female SCID mice (CLEA Japan, Inc.) to develop leukemia. The compounds described in Examples 80, 81 and 83 were orally administered, respectively, at a dose of 100 mg/kg every day from the time when 1629B cells were transferred.

[4] = leukemia mice of Example 89 (100 mg/kg orally from Day 21 after transfer)
[5] = leukemia mice of Example 88 (100 mg/kg orally from the time of transfer)
[6] = Day 43 after the transfer of leukemia cells

`COC1(c2ccc(/C=C/C[C@H](NC(=O)c3c(Cl)cccc3Cl)C(=O)[O-])cc2)CCOCC1.[Na+]` [Example 78, (S,E)-2-(2,6-Dichlorobenzamido)-5-[4-(4-methoxytetrahydropyran-4-yl)-phenyl]pent-4-enoic Acid Sodium Salt] was tested, and the “reduction ratio of increase in the number of leukemia cells in bone marrow” value (“reduction ratio of increase … in bone marrow” below) [1, 4] was 41.7%, the “reduction ratio of increase in the number of leukocytes in peripheral blood” value [2] was 41.0% and the “survival time prolonged to (Day after the transfer of leukemia cells)” value (shortened to “survival time prolonged”) [2] was 43 days.

`CN(c1ccc(/C=C/C[C@H](NC(=O)c2c(Cl)cccc2Cl)C(=O)O)cc1)c1ncccn1` [Example 80, (S,E)-2-(2,6-Dichlorobenzamido)-5-[4-(methyl-pyrimidin-2-ylamino)phenyl]pent-4-enoic Acid] was tested, and the “reduction ratio of increase … in bone marrow” value [1, 5] was 45.9%, the “reduction ratio of increase in the number of leukocytes in peripheral blood” value ([3]; Day 43 after the transfer) was 61.6% and the survival rate [3, 6] was 75.0%.

With `COC1(c2ccc(/C=C/C[C@H](NC(=O)c3c(Cl)cccc3Cl)C(=O)O)cc2)CCOCC1` [Example 77, (S,E)-2-(2,6-Dichlorobenzamido)-5-[4-(4-methoxytetrahydropyran-4-yl)-phenyl]pent-4-enoic Acid] the “reduction ratio of increase … in bone marrow” value [1, 4] was 49.3%, the “reduction ratio of increase in the number of leukocytes in peripheral blood” value [2] was 41.2% and the “survival time prolonged” value [2] was 43 days.

For `CC(C)N(c1ccc(/C=C/C[C@H](NC(=O)c2c(Cl)cccc2Cl)C(=O)[O-])cc1)c1ncccn1.[Na+]` [Example 84, (S,E)-2-(2,6-Dichlorobenzamido)-5-[4-(isopropyl-pyrimidin-2-ylamino)phenyl]pent-4-enoic Acid Sodium Salt], the “reduction ratio of increase … in bone marrow” value [1, 4] was 45.6%, the “reduction ratio of increase in the number of leukocytes in peripheral blood” value [2] was 49.8% and the “survival time prolonged” value [2] was 43 days.

For `CN(c1ccc(/C=C/C[C@H](NC(=O)c2c(Cl)cccc2Cl)C(=O)[O-])cc1)c1ncccn1.[Na+]` [Example 81, (S,E)-2-(2,6-Dichlorobenzamido)-5-[4-(methyl-pyrimidin-2-ylamino)phenyl]pent-4-enoic Acid Sodium Salt], the “reduction ratio of increase … in bone marrow” value [1, 5] was 50.8%, the “reduction ratio of increase in the number of leukocytes in peripheral blood” value ([3]; Day 51 after the transfer) was 60.8% and the survival rate ([3]; Day 51 after the transfer of leukemia cells) was 62.5%.

`CC(C)N(c1ccc(/C=C/C[C@H](NC(=O)c2c(Cl)cccc2Cl)C(=O)O)cc1)c1ncccn1` [Example 83, (S,E)-2-(2,6-Dichlorobenzamido)-5-[4-(isopropyl-pyrimidin-2-ylamino)phenyl]pent-4-enoic Acid] was tested, and the “reduction ratio of increase … in bone marrow” value [1, 5] was 46.1%, the “reduction ratio of increase in the number of leukocytes in peripheral blood” value ([3]; Day 43 after the transfer) was 53.1% and the survival rate [3, 6] was 75.0%.

— patent publication US7893046B2, “Therapeutic or prophylactic agent for leukemia” (Toray Industries, Inc., priority 2006, dated 2011)
